In patent publication US20260159854A1, “NOVEL CARRIERS FOR NUCLEIC ACID AND/OR PROTEIN DELIVERY” (LUDWIG-MAXIMILIANS-UNIVERSITÄT MÜNCHEN, priority 2022, published 2026):

Legend:
HeLa cells = experiment: CellTiterGlo assay (relative metabolic activity); format: cell-based; settings: for toxicity (relative metabolic activity, CellTiter Glo): pDNA polyplexes 200 ng/well, 24 h, vs non-reducible analogs
Experimental: HeLa cells were seeded 24 h prior to transfection (5000 cells/well) in 96-well plates. Immediately prior to transfection, the medium was replaced with suitable amounts of fresh medium containing 10% (v/v) FBS to reach a final volume of 100 μL during transfection. The nanoparticles were prepared as described in section 6.1 and transfected with indicated doses. The medium was removed at 24 h after transfection, and 25 μL of fresh, pre-warmed medium as well as 25 μL of CellTiterGlo® Reagent (Promega, Mannheim, Germany) were added to each well [S. Berger et al., Biomacromolecules 2021, 22, 1282; A. Krhač Levačić et al., J Controlled Release 2021, 339, 27]. After incubation on an orbital shaker for 30 min at RT, luminescence was recorded using a Centro LB 960 plate reader luminometer (Berthold Technologies, Bad Wildbad, Germany). The luminescent signals (in RLU) of the samples were normalized to the luminescent signal of the negative control (HBG buffer-treated control cells). Results were presented as relative metabolic activity related to the negative control. Experiments were performed as triplicates.

N2a cells [1] = experiment: Luciferase expression assay of mRNA polyplexes in N2a cells; format: cell-based, murine
N2a cells [2] = experiment: Luciferase expression assay of pDNA polyplexes in N2a cells; format: cell-based, murine; settings: for dose dependence of pDNA transfection efficiency: dose titration 200, 100, 50, 26, 14 ng pCMVLuc/well; for transfection efficiency (luciferase expression) of pDNA polyplexes: 24 h, standard pDNA dose 200 ng/well, compared with LPEI N/P 6
[3] = Particle size, polydispersity and zeta potential measurement (DLS, ELS); format: physicochemical; parameters: Zeta / Size: unit not given here
Experimental: 6.6 Particle Size and Zeta Potential Measurement for pDNA, mRNA, siRNA, Cas9 mRNA/sgRNA and Cas9 mRNA/sgRNA/ssDNA Polyplexes as Well as mRNA LNPs
Measurements of size and zeta potential were performed with a Zetasizer Nano ZS (Malvern Instruments, Malvern, Worcestershire, U.K.) in a folded capillary cell (DTS1070) by dynamic and electrophoretic laser-light scattering (DLS, ELS). […] Samples were measured three times with six sub runs per measurement. For measurement of the zeta potential, all samples were diluted to 800 μL with HBG or HEPES (for siRNA polyplexes) directly before measurement. Parameters were identical to the size measurement apart from an equilibration time of 60 sec. Three measurements with 15 sub runs lasting 10 sec each were performed, and zeta potentials were calculated by the Smuchowski equation.

[4] = system: N2a tumor-bearing A/J mice; experiment: Ex vivo luciferase expression after intravenous injection of mRNA polyplexes; format: in vivo
Experimental: Neuro2a cells (10^6 cells/150 μL PBS) were inoculated subcutaneously into the left flank of 6-week-old female A/J mice (Envigo RMS GmbH, Dusseldorf, Germany). Mice were randomly divided into groups of three (in the case of mRNA LNPs) or five (in the case of mRNA polyplexes) and were housed in isolated ventilated cages under specific pathogen free conditions with a 12 h day/night interval, and food and water ad libitum. Weight and general well-being were monitored continuously. Tumor size was measured with a caliper and determined by formula: a*b^2/2 (a=longest side of the tumor; b=widest side vertical to a). When tumors reached a size of 250-500 mm3, the experiments were performed by intravenous tail vein injection of polyplexes or LNPs formed as described in 6.1 and 6.3, containing 1 μg, 3 μg or 10 μg of stabilized firefly luciferase encoding mRNA (CleanCap™ FLuc mRNA (5moU); Trilink Biotechnologies, San Diego, CA, USA) in 150 μL HBG. Polyplexes containing 10 μg mRNA were dialyzed for 1 h at 4° C. against HBG (dialysis membrane MWCO 100-500 Da; Spectra/Por®, Carl Roth, Karlsruhe, Germany) prior to application to remove small amounts of ethanol. […] The luciferase gene expression was determined as described above and is presented as relative light units (RLU) per gram (g) tumor/organ.
To evaluate luciferase mRNA delivery by an ex vivo luciferase gene expression assay, organ and tumor tissues were homogenized in Luciferase Cell Culture Lysis Reagent 1× (Promega, Mannheim, Germany), supplemented with 1% (v/v) protease and phosphatase inhibitor cocktail (Sigma-Aldrich, Munich, Germany) using a tissue and cell homogenizer (FastPrep®-24, MP Biomedicals, USA). […] Luciferase activity in 25 μL supernatant was measured in a Centro LB 960 plate reader luminometer (Berthold Technologies, Bad Wildbad, Germany) for 10 sec after addition of 100 μL/well of a LAR buffer solution (20 mM glycylglycine, 1.0 mM MgCl2, 0.10 mM EDTA, 3.3 mM DTT, 0.55 mM ATP, and 0.27 mM coenzyme A; pH 8-8.5) supplemented with 5% (v/v) of a mixture of 10 mM luciferin and 29 mM glycylglycine.

N2a cells [5] = experiment: Co-delivery efficiency of mRNA/pDNA polyplexes by flow cytometry; format: cell-based, murine; settings: N/P 18, 25 and 50 ng combined nucleic acid/well
Experimental: CleanCap® mCherry mRNA (5moU) (Trilink Biotechnologies, San Diego, CA, USA) and pEGFP-N1 pDNA (Clontech Laboratories, Inc. (now Takara Bio USA, Inc., San Jose, CA, USA)) at a fixed weight ratio of 1:1 were mixed and diluted in HBG. Calculated amounts of aminolipid at indicated N/P (nitrogen/phosphate) ratios (see above) were diluted in separate tubes of HBG. Equal volumes of nucleic acid solution and aminolipid solution were mixed by rapid pipetting and incubated 40 min at RT in a closed Eppendorf reaction tube. The final concentration of nucleic acid in the polyplex solution was 5 μg/mL (2.5 μg/mL mCherry mRNA plus 2.5 μg/mL pEGFP-N1 pDNA).
mRNA/pDNA polyplex treatments were performed in triplicate in 96-well plates. N2a cells were seeded 24 h prior to transfection (10,000 cells/well). On the next day, the medium was replaced with 80 μL of fresh pre-warmed medium containing 10% (v/v) FBS. The nanoparticles were prepared as described above, and the volumes of 10 and 5 μL of polyplex solution (2.5 μg/mL mCherry mRNA and 2.5 μg/mL pEGFP-N1 pDNA) were added. 20 μL HBG buffer per well was used as negative control. After 24 h of treatment, cells were collected and re-suspended in PBS solution containing 10% (v/v) FBS (FACS buffer) for flow cytometric evaluation. All samples were analyzed by flow cytometry using a CytoFLEX S Flow Cytometer (Beckman Coulter, Brea, CA, USA). Shortly before the measurement, 1 ng/μL 4′, 6-diamidino-2-phenylindole (DAPI) was added and used to discriminate between viable and dead cells. The cellular fluorescence was assayed by excitation of DAPI at 405 nm and detection of emission at 450 nm. Only isolated viable cells were evaluated. Gates were set compared to control measurements with HBG buffer-treated cells. […] Flow cytometry data were analyzed using FlowJo™ v10.8 flow cytometric analysis software by FlowJo, LLC (Becton, Dickinson and Company, U.S.). The cellular fluorescence expression was assayed by excitation at 561 nm and 488 nm, the detection of emission at 610 nm and 530 nm for mCherry and eGFP, respectively.

Huh7 cells = experiment: Luciferase expression assay of pDNA polyplexes in Huh7 cells; format: cell-based, human
[6] = pDNA polyplexes, N/P 12, 10 μg/mL pCMVLuc
[7] = Cas9 mRNA/sgGFP1 polyplexes, N/P 18, combined nucleic acid 5.0 μg/mL
[8] = mRNA LNPs, 12.5 μg/mL CleanCap FLuc mRNA (5moU), N/P 9, molar ratios see Table A
[9] = mRNA polyplexes, 12.5 μg/mL CleanCap FLuc mRNA (5moU), N/P 12 (1611, 1719, 1722, 1732), N/P 24 (1614), N/P 18 (1621, 1747)
[10] = Cas9 mRNA/sgDMDex23 polyplexes, N/P 24, combined nucleic acid 12.5 μg/mL
[11] = PEGylated pDNA polyplexes 25% PEG, 10 μg/mL pCMVLuc
[12] = Targeted pDNA polyplexes 12.5% PEG 2k, 12.5% PEG-GE11, 10 μg/mL pCMVLuc
[13] = Unmodified pDNA polyplexes 0%, 10 μg/mL pCMVLuc
[14] = pDNA polyplexes, N/P 18, 10 μg/mL pCMVLuc

Molecule: CCCCCCCCN(CCCCCCCC)CCCCCCCC(=O)NCCCC[C@H](NC(=O)CCCCCCCN(CCCCCCCC)CCCCCCCC)C(=O)NCCSSCCNC(=O)CCC(=O)NCCCC[C@H](NC(=O)CCC(=O)NCCSSCCNC(=O)[C@H](CCCCNC(=O)CCCCCCCN(CCCCCCCC)CCCCCCCC)NC(=O)CCCCCCCN(CCCCCCCC)CCCCCCCC)C(=O)NCCNCCNCCNCCNC(=O)CCC(=O)NCCNCCNCCNCCNC(=O)CCC(=O)O [compound 1824, [(8Oc)2)-K-ssbb]2-K-Stp2]
- toxicity (relative metabolic activity, CellTiter Glo) (HeLa cells): significantly less toxic

Molecule: K[K2-K(12Oc)2]2 [compound 1851]
- RLU values relative to Stp2 analog 1717 (N2a cells [1]; 15 ng mRNA/well): around 10 fold
- transfection efficiency of mRNA polyplexes vs Stp2 analog 1717 (N2a cells [1]; all tested N/P ratios, 50 and 15 ng mRNA/well): outperformed its Stp2 analog

Molecule: K(12Oc)2-Stp2 [compound 1710]
- dose dependence of pDNA transfection efficiency (N2a cells [2]): good performance only at the highest dose
- Pdl [3, 6]: 0.246 ± 0.024
- Z-average [3, 6]: 111.8 ± 11.4 nm
- Zeta potential [3, 6]: 15.6 ± 2.1 mV

Molecule: [K(8Oc)]2-Stp2-[K(8Oc)]2 [compound 1745]
- Pdl [3, 7]: 0.266 ± 0.046
- Z-average [3, 7]: 99.4 ± 7.9 nm
- Zeta potential [3, 7]: 11.9 ± 1.6 mV

Molecule: K[K(12Oc)2]-Stp-K[K(12Oc)2] [compound 1720]
- Pdl [3, 8]: 0.196
- Z-average [3, 8]: 209.8 nm
- Zeta potential [3, 8]: 0.70 mV

Molecule: K(12Oc)2-Stp2-K(12Oc)-K(12Oc) [compound 1722]
- transfection efficiency (luciferase expression) of pDNA polyplexes (N2a cells [2]): most potent pDNA carriers
- transfection efficiency (luciferase expression) of mRNA polyplexes (N2a cells [1]; 24 h, dose titration 63, 31, 16 ng mRNA/well, vs succPEI and 1218): dose-independent transfection efficiency
- Pdl [3, 9]: 0.339
- Z-average [3, 9]: 92.5 nm
- Zeta potential [3, 9]: 44.4 mV

Molecule: K(8Oc)2-Stp-K(8Oc)-K(8Oc) [compound 1620]
- Pdl [3, 10]: 0.130
- Z-average [3, 10]: 134.3 nm
- Zeta potential [3, 10]: 22.7 mV
- Pdl [3, 8]: 0.152
- Z-average [3, 8]: 271.1 nm
- Zeta potential [3, 8]: −1.41 mV

Molecule: K(12Oc)-(^εK-^εK-6-Ahx)-K(12Oc) [compound 1747]
- Pdl [3, 9]: 0.146
- Z-average [3, 9]: 91.1 nm
- Zeta potential [3, 9]: 17.5 mV

Molecule: K(8Oc)2-Stp2-K(8Oc)-K(8Oc) [compound 1731]
- Z-average [3, 10]: 67.5 nm
- Zeta potential [3, 10]: 37.5 mV

Molecule: [K(12He)]2-Stp2-[K(12He)]2 [compound 1760]
- in vivo luciferase expression of mRNA polyplexes ([4]; tumors, lungs, liver, spleen): great in vivo performance

Molecule: K(12Bu)-Stp-K(12Bu) [compound 1763]
- mCherry mRNA/eGFP pDNA co-expression (co-delivery efficiency) (N2a cells [5]): most potent structures

Molecule: CCCCCCCCCCCCN(CCCCCCCCCCCC)CCCCCCCC(=O)NCCSSCCNC(=O)CCC(=O)NCCCC[C@H](NC(=O)CCC(=O)NCCNCCNCCNCCNC(=O)[C@@H](N)CCCCNC(=O)CCC(=O)NCCSSCCNC(=O)CCCCCCCN(CCCCCCCCCCCC)CCCCCCCCCCCC)C(=O)O [compound 1821, K(ssbb-12Oc)-Stp-K(ssbb-12Oc)]
- toxicity (relative metabolic activity, CellTiter Glo) (HeLa cells): significantly less toxic

Molecule: K(12Oc)2-Stp2-K[K(12Oc)2] [compound 1717]
- transfection efficiency (luciferase expression) of pDNA polyplexes (N2a cells [2]): most potent pDNA carriers

Molecule: [K(12Oc)]2-Stp-[K(12Oc)]2 [compound 1718]
- Pdl [3, 10]: 0.223
- Z-average [3, 10]: 107.5 nm
- Zeta potential [3, 10]: 36.0 mV
- Pdl [3, 8]: 0.140
- Z-average [3, 8]: 198.1 nm
- Zeta potential [3, 8]: 0.03 mV

Molecule: K[K[12Oc)2]2-Stp [compound 1613]
- Pdl [3, 8]: 0.159
- Z-average [3, 8]: 176.8 nm
- Zeta potential [3, 8]: −3.03 mV

Molecule: CCCCCCCCN(CCCCCCCC)CCCCCCCC(=O)NCCCC[C@H](NC(=O)CCCCCCCN(CCCCCCCC)CCCCCCCC)C(=O)NCCSSCCNC(=O)CCC(=O)NCCCC[C@H](NC(=O)CCC(=O)NCCSSCCNC(=O)[C@H](CCCCNC(=O)CCCCCCCN(CCCCCCCC)CCCCCCCC)NC(=O)CCCCCCCN(CCCCCCCC)CCCCCCCC)C(=O)NCCNCCNCCNCCNC(=O)CCC(=O)O [compound 1792, [(8Oc)2)-K-ssbb]2-K-Stp]
- cell viability (relative metabolic activity, CellTiter Glo) (HeLa cells; mRNA polyplexes, 25% of the standard mRNA dose of 250 ng/well, vs 1621): significantly improved cell viability

Molecule: K(12Oc)2-Stp [compound 1614]
- Pdl [3, 9]: 0.223
- Z-average [3, 9]: 111.6 nm
- Zeta potential [3, 9]: 15.7 mV

Molecule: K(DodOc)2-Stp2-K(DodOc)-K(DodOc) [compound 1725]
- transfection efficiency of pDNA polyplexes, DodOc (amide) control vs LAF analog (N2a cells [2]; N/P 12, 200 ng pCMVLuc/well): ineffective
- transfection efficiency of mRNA polyplexes, DodOc (amide) control vs LAF analog (N2a cells [1]; N/P 12, 62.5 ng mRNA/well): ineffective

Molecule: K(12Oc)2-Stp-K(12Oc)-K(12Oc) [compound 1612]
- Pdl [3, 8]: 0.273
- Z-average [3, 8]: 275.8 nm
- Zeta potential [3, 8]: 1.88 mV

Molecule: K(12He)-Stp-K(12He) [compound 1765]
- mCherry mRNA/eGFP pDNA co-expression (co-delivery efficiency) (N2a cells [5]): most potent structures

Molecule: CCCCCCCCCCCCN(CCCCCCCCCCCC)CCCCCCCC(=O)NCCCC[C@H](NC(=O)CCC(=O)NCCNCCNCCNCCNC(=O)[C@@H](N)CCCCNC(=O)CCCCCCCN(CCCCCCCCCCCC)CCCCCCCCCCCC)C(=O)O [compound 1611, K(12Oc)-Stp-K(12Oc)]
- in vivo toxicity / tolerability of mRNA polyplexes [4]: good tolerability

Molecule: Stp-K[K(12Oc)2]-Stp [compound 1715]
- dose dependence of pDNA transfection efficiency (N2a cells [2]): good performance only at the highest dose
- Pdl [3, 6]: 0.100 ± 0.010
- Z-average [3, 6]: 89.8 ± 1.4 nm
- Zeta potential [3, 6]: 24.47 ± 1.4 mV

Molecule: K[K[8Oc)2]2-Stp2 [compound 1730]
- RLU values of targeted polyplexes in comparison to shielded polyplexes (Huh7 cells; N/P 12, pDNA dose 50 ng/well): 32.8 fold
- RLU values of targeted polyplexes in comparison to shielded polyplexes (Huh7 cells; N/P 12, pDNA dose 100 ng/well): 25.5 fold
- Pdl [3, 11]: 0.22
- Size [3, 11]: 100
- Zeta [3, 11]: 2.0
- Pdl [3, 12]: 0.17
- Size [3, 12]: 125
- Zeta [3, 12]: 2.0
- Pdl [3, 13]: 0.21
- Size [3, 13]: 109
- Zeta [3, 13]: 15.9
- PDI [3, 14]: 0.10 ± 0.01
- Z-average [3, 14]: 95.3 ± 1.6 nm
- Zeta potential [3, 14]: 21.7 ± 0.6 mV
